In ChEMBL document CHEMBL1141921, “Phthalazinones. Part 1: The design and synthesis of a novel series of potent inhibitors of poly(ADP-ribose)polymerase” (Bioorg Med Chem Lett, 2005):

Columns and labels:
[1] = molecular target: Poly [ADP-ribose] polymerase 1 (Homo sapiens, UniProt P09874); assay: Inhibitory concentration against human poly (ADP-ribose) polymerase 1 (PARP-1)
[2] = In vitro metabolic stability was measured in human liver microsomes; format: ADME, Microsome
[3] = test system: HeLa; assay: Potentiation factor (ratio of the IC50 growth curve for the alkylating agent, methyl methanesulfonate (MMS) divided by the IC50 of the curve of MMS + PARP inhibitor) against human HeLa B cells at a concentration of 200 nM; format: functional
[4] = In vitro metabolic stability was measured in mouse liver microsomes; format: ADME, Microsome

Poly [ADP-ribose] polymerase 1, sequence (P09874 whole entry): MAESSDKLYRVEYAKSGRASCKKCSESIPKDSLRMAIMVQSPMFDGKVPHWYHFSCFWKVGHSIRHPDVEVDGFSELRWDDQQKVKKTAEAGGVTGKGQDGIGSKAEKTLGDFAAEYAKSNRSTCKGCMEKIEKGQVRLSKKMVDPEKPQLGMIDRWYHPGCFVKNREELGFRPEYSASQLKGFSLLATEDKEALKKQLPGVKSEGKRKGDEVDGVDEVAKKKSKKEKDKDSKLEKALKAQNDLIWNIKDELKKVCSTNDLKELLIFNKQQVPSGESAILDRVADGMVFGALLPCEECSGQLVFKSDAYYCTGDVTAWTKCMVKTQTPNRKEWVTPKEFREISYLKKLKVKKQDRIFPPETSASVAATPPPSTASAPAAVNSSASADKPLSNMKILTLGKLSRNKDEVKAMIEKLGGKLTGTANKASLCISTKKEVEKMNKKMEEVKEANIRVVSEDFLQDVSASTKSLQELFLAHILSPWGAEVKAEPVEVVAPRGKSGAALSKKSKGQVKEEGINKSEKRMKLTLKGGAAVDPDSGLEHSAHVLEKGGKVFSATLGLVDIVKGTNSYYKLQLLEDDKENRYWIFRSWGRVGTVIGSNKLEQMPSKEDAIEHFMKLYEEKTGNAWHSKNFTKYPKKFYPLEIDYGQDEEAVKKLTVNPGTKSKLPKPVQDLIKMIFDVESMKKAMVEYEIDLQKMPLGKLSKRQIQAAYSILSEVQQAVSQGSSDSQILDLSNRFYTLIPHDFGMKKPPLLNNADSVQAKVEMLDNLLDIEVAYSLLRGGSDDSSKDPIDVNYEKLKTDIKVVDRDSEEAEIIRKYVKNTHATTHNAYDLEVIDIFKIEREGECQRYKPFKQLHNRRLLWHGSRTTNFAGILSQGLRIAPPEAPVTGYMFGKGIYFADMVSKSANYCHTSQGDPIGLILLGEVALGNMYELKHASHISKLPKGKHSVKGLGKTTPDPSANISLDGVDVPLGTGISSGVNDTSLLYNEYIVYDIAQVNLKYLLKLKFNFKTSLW

| IC50 [1] [nM] | SMILES | PF50 [3] | further results |
| --- | --- | --- | --- |
| 370 | CC(C)C(=O)Nc1cccc(Cc2nnc(O)c3ccccc23)c1 |  |  |
| 116 | CCOC(=O)Nc1cccc(Cc2nnc(O)c3ccccc23)c1 |  |  |
| 290 | CCS(=O)(=O)Nc1cccc(Cc2n[nH]c(=O)c3ccccc23)c1 |  |  |
|  | O=C1CCC(=O)N1c1cccc(Cc2n[nH]c(=O)c3ccccc23)c1 | 1.74 | Cli [2]: < 0.05 ml min-1 g-1 liver |
|  | O=C1CCC(=O)N1c1cc(Cc2n[nH]c(=O)c3ccccc23)ccc1Cl | 1.5 |  |
|  | CN1CC(=O)N(c2cc(Cc3nnc(O)c4ccccc34)ccc2F)C(=O)C1 | 3.1 |  |
| 5 | O=C1CCC(=O)N1c1cc(Cc2n[nH]c(=O)c3ccccc23)ccc1F | 5.62 | Cli [4]: < 1 ml min-1 g-1 liver |
|  | O=C1CC(c2ccccc2)C(=O)N1c1cc(Cc2n[nH]c(=O)c3ccccc23)ccc1F (configuration not stated) | 5.4 |  |
| 55 | O=C(Nc1cccc(Cc2n[nH]c(=O)c3ccccc23)c1)C1CC1 |  |  |
|  | O=C1CCCN1c1cccc(Cc2n[nH]c(=O)c3ccccc23)c1 |  | Cli [4]: 4.9 ml min-1 g-1 liver |
| 540 | CCCNC(=O)Nc1cccc(Cc2n[nH]c(=O)c3ccccc23)c1 |  |  |
|  | CC1(C)CC(=O)N(c2cc(Cc3nnc(O)c4ccccc34)ccc2F)C1=O | 2.9 |  |
|  | O=C1C=CC(=O)N1c1cccc(Cc2nnc(O)c3ccccc23)c1 | 0.94 |  |
|  | O=C1CCCC(=O)N1c1cc(Cc2n[nH]c(=O)c3ccccc23)ccc1F | 3.6 |  |
|  | CC1CC(=O)N(c2cc(Cc3n[nH]c(=O)c4ccccc34)ccc2F)C1=O (configuration not stated) | 18.2 |  |
| 33 | COc1ccc(Cc2n[nH]c(=O)c3ccccc23)cc1N1C(=O)CCC1=O | 1.5 |  |
| 36 | CC(=O)Oc1cccc(Cc2n[nH]c(=O)c3ccccc23)c1 |  |  |
| 20 | CCC(=O)Nc1cccc(Cc2n[nH]c(=O)c3ccccc23)c1 |  | Cli [4]: 12 ml min-1 g-1 liver |
| 56 | O=C(Nc1cccc(Cc2n[nH]c(=O)c3ccccc23)c1)c1ccc(-c2ccsc2)s1 |  |  |
| 50 | CCNC(=O)c1cccc(Cc2n[nH]c(=O)c3ccccc23)c1 |  | Cli [4]: < 1 ml min-1 g-1 liver |
| 10 | COc1ccc(-n2cc(C(=O)Nc3cccc(Cc4n[nH]c(=O)c5ccccc45)c3)c(C)n2)cc1 |  |  |
| 90 | CCCC(=O)Nc1cccc(Cc2n[nH]c(=O)c3ccccc23)c1 |  |  |
| 770 | O=c1[nH]nc(Cc2ccccc2)c2ccccc12 |  |  |

| SMILES | IC50 [1] [nM] | PF50 [3] | further results |
| --- | --- | --- | --- |
| O=C(Nc1cccc(Cc2nnc(O)c3ccccc23)c1)c1ccc(-n2cccn2)nc1 | 47 |  |  |
| Cc1noc(-c2cccc(Cc3nnc(O)c4ccccc34)c2)n1 | 189 |  |  |
| O=C(Nc1cccc(Cc2nnc(O)c3ccccc23)c1)C(F)(F)F | 13 |  | Cli [4]: > 50 ml min-1 g-1 liver |
| O=C1c2ccccc2C(=O)N1c1cccc(Cc2n[nH]c(=O)c3ccccc23)c1 | 180 |  |  |
| Cc1nc(-c2ccccc2)sc1C(=O)Nc1cccc(Cc2n[nH]c(=O)c3ccccc23)c1 | 27 |  |  |
| O=C1C2CC2C(=O)N1c1cc(Cc2nnc(O)c3ccccc23)ccc1F (configuration not stated) | 5 | 14.4 |  |
